{
  "source": "patent US12577325B2",
  "about": "“Bispecific antibody-camptothecin drug conjugate and pharmaceutical use thereof” (SYSTIMMUNE, INC., priority 2021, dated 2026)",
  "key": {"[1]": {"tested_on": "human poorly differentiated lung cancer squamous cell carcinoma cell line Oka-c-1", "test": "In vitro efficacy (Alamar Blue or MTS, 5 days) in Oka-c-1", "format": "cell-based", "conditions": "120 h, Oka-c-1, 5 days", "experimental": "(§1) The in vitro efficacy of ADC-coupled drugs was evaluated using an experimental model of two human tumor cell lines (human poorly differentiated lung cancer squamous cell carcinoma cell line Oka-c-1, human lung squamous cell carcinoma cells SK-MES-1).\n(§2) Inoculate a certain number of tumor cells in a 96-well plate, add the gradient-diluted test antibody and the corresponding ADC drug to the cells, treat for 5 days, measure the cell viability using Alamar Blue or MTS, and evaluate the inhibitory effect of the test antibody, the ADC and the small molecule drug d3 on the tumor cell lines by calculating the IC50. The starting concentration of the antibody drug was 500 nM, and the dilution was 7-fold, totaling 7 concentration points, and the treatment was carried out for 5 days."}, "[2]": {"tested_on": "human lung squamous cell carcinoma cells SK-MES-1", "test": "In vitro efficacy (Alamar Blue or MTS, 5 days) in SK-MES-1", "format": "cell-based", "conditions": "120 h, SK-MES-1, 5 days", "experimental": "as §1, §2"}},
  "data": [
    {"smiles": "CC[C@@]1(O)C(=O)OCc2c1cc1n(c2=O)Cc2c-1nc1cc(F)c(C)c3c1c2[C@@H](NC(=O)[C@H](C)O)CC3", "note": "[d3]", "values": [
      {"measurement": "IC50", "setting": "[1]", "result": 0.846, "unit": "nM"},
      {"measurement": "IC50", "setting": "[2]", "result": 2.04, "unit": "nM"}
    ]}
  ]
}
